Measurements published in ChEMBL document CHEMBL6121035, “An Unexpected Activity of a Minor Cannabinoid: Cannabicyclol (CBL) Is a Potent Positive Allosteric Modulator of Serotonin 5-HT1A Receptor” (J Nat Prod, 2025).
Activity calls are given as the source filed them. The calls are words filed in the database; no cut-off is given here.

Experiments:
[1] = target: T1, 5-hydroxytryptamine receptor 1A (Homo sapiens) (UniProt P08908); assay: Positive allosteric modulation of N-terminal FLAG-tagged Rluc8-fused human 5-HT-1A expressed in HEK293T cells by BRET assay relative to control; format: cell-based
T1 sequence (whole entry): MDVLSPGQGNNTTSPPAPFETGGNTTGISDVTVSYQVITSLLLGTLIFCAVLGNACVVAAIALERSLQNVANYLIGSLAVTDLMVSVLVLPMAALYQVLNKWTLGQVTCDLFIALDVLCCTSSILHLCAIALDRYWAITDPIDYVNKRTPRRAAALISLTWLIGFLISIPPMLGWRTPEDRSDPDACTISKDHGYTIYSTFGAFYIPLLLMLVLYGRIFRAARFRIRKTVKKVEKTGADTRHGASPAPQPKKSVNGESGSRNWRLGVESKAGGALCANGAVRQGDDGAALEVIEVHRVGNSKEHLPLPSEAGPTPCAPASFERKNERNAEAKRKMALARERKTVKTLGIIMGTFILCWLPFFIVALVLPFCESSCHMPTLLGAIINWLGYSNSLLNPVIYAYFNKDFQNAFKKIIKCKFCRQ

[2] = Stability of compound in MCT oil at 40 degreeC measured upto 2 months by HPLC-DAD analysis; format: physicochemical; settings: 1460 h
[3] = target: T1, 5-hydroxytryptamine receptor 1A (Homo sapiens); assay: (§1) Positive allosteric modulation of PK-tagged human 5-HT-1A receptor expressed in CHO-K1 cells assessed as receptor activation at > 10 uM in presence of serotonin at 175 nM preincubated with compound for 30 mins followed by serotonin addition and measured after 90 mins by measuring beta arrestin recruitment by chemiluminescence based envision reader analysis; format: functional, cell-based
[4] = target: T1, 5-hydroxytryptamine receptor 1A (Homo sapiens); assay: as §1, with “4” for “> 10”, “serotonin” for “serotonin at 175 nM”, “analysis relative to control” for “analysis”; format: functional, cell-based; settings: filed as positive allosteric modulator
[5] = target: T1, 5-hydroxytryptamine receptor 1A (Homo sapiens); assay: Agonist activity at PK-tagged human 5-HT-1A receptor expressed in CHO-K1 cells at > 0.5 uM incubated for 90 mins by measuring beta-arrestin recruitment by PathHunter assay; format: functional, cell-based; settings: filed as agonist
[6] = target: T1, 5-hydroxytryptamine receptor 1A (Homo sapiens); assay: as §1, with “12” for “> 10”, “serotonin” for “serotonin at 175 nM”; format: functional, cell-based
Spike glycoprotein = Spike glycoprotein (Severe acute respiratory syndrome coronavirus 2, UniProt P0DTC2); assay: Inhibition of SARS-COV-2 spike protein
[7] = target: Cannabinoid receptor 1 (Homo sapiens) (UniProt P21554); assay: Displacement of [3H]-CP55940 from cannabinoid CB1 receptor (unknown origin) at 1 to 10 uM incubated for 90 mins by Radioligand binding assay; settings: dose 1-10 µM
Chain of Cannabinoid receptor 1 (Homo sapiens) (P21554 whole entry): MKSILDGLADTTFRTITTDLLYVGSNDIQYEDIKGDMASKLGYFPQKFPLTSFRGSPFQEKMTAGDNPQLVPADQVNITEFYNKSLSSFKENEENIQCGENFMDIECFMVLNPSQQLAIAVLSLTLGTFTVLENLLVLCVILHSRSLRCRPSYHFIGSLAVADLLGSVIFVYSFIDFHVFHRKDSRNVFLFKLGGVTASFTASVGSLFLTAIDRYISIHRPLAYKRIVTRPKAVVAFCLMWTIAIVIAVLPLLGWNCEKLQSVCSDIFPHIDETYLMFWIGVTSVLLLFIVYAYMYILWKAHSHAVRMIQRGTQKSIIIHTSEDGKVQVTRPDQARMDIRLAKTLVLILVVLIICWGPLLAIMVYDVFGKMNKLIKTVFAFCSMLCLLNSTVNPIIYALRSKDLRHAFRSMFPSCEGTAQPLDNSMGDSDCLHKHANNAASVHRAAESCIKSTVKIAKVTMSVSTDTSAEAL

[8] = target: Cannabinoid receptor 2 (Homo sapiens) (UniProt P34972); assay: Displacement of [3H]-CP55940 from cannabinoid CB2 receptor (unknown origin) at 1 uM incubated for 90 mins by Radioligand binding assay
Chain of Cannabinoid receptor 2 (Homo sapiens) (P34972 whole entry): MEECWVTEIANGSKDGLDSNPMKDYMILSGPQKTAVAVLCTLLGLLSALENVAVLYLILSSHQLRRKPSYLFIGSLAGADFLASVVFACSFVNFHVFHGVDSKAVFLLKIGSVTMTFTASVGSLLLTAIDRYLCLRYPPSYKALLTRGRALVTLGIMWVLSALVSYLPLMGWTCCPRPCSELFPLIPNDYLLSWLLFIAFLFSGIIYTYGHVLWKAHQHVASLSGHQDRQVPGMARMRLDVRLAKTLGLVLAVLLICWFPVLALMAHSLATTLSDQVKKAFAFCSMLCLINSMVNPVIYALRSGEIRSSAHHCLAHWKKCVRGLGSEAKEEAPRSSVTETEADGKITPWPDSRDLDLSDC

[9] = target: T1, 5-hydroxytryptamine receptor 1A (Homo sapiens); assay: as §1, with “1” for “> 10”, “analysis relative to control” for “analysis”; format: functional, cell-based; settings: filed as positive allosteric modulator
[10] = target: T1, 5-hydroxytryptamine receptor 1A (Homo sapiens); assay: as §1, with “activation” for “activation at > 10 uM”, “serotonin” for “serotonin at 175 nM”; format: functional, cell-based; settings: filed as positive allosteric modulator, dose 0.6-12000 nM
[11] = target: T1, 5-hydroxytryptamine receptor 1A (Homo sapiens); assay: as §1, with “50 nM” for “> 10 uM”, “40” for “175”; format: functional, cell-based; settings: filed as positive allosteric modulator, time 120.0 min
[12] = Stability of compound at 25 degreeC measured upto 2 months by HPLC-DAD analysis; format: physicochemical; settings: 1460 h
[13] = target: T1, 5-hydroxytryptamine receptor 1A (Homo sapiens); assay: Agonist activity at PK-tagged human 5-HT-1A receptor expressed in CHO-K1 cells at 12 uM incubated for 90 mins by measuring beta-arrestin recruitment by PathHunter assay relative to control; format: functional, cell-based
[14] = target: T1, 5-hydroxytryptamine receptor 1A (Homo sapiens); assay: Displacement of [3H]-8-Hydroxy-DPAT from 5-HT-1A receptor (unknown origin) at 1 uM incubated for 90 mins by Radioligand binding assay relative to control

| SMILES | Activity [1] [%] | Stability [2] | Activity [3] | Activity [4] [%] | Activity [5] | Activity [6] | EC50 (Spike glycoprotein) [µM] | Activity [7] | Activity [8] | Activity [9] [%] | Activity [10] | Activity [11] | Stability [12] | Activity [13] [%] | Activity [14] [%] |
| --- | --- | --- | --- | --- | --- | --- | --- | --- | --- | --- | --- | --- | --- | --- | --- |
| CCCCCn1cc(C(=O)c2cccc3ccccc23)c2ccccc21 | 12 | – | – | – | – | – | – | – | – | – | – | – | – | – | – |
| O=C(c1cccc2ccccc12)c1cn(CCCCCF)c2ccccc12 | 21 | – | – | – | – | – | – | – | – | – | – | – | – | – | – |
| CCCCCc1cc(O)c2c(c1)OC1(C)CCC3C1C2C3(C)C (racemic) [CANNABICYCLOL] | – | Stable | inactive | 80 | Active; Minimal Agonist Activity Observed | inactive | 10.8 | inactive | inactive | 100 | Dose-dependent-effect | Active | Stable | 15 | 20 |
